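Protocol summary: plate cells (96-well), add compound at 5 concentrations, incubate 48 h, interpolate endpoints linearly. Definition used: TGI = concentration required for complete inhibition of growth.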
Tests used:
Experiment in all cases: NCI tumour cell line growth inhibition, 48 h
SK-OV-3 ovarian = system: SK-OV-3 ovarian
RPMI-8226 leukemia = system: RPMI-8226 leukemia
HS 578T breast = system: HS 578T breast
RXF 393 renal = system: RXF 393 renal
SF-268 CNS = system: SF-268 CNS
BT-549 breast = system: BT-549 breast
SK-MEL-2 melanoma = system: SK-MEL-2 melanoma
ACHN renal = system: ACHN renal
SK-MEL-5 melanoma = system: SK-MEL-5 melanoma
HCT-15 colon = system: HCT-15 colon
COLO 205 colon = system: COLO 205 colon
OVCAR-8 ovarian = system: OVCAR-8 ovarian
PC-3 prostate = system: PC-3 prostate
U251 CNS = system: U251 CNS
HOP-62 NSCLC = system: HOP-62 NSCLC
HCC-2998 colon = system: HCC-2998 colon
OVCAR-4 ovarian = system: OVCAR-4 ovarian
786-0 renal = system: 786-0 renal
SN12C renal = system: SN12C renal
SK-MEL-28 melanoma = system: SK-MEL-28 melanoma
UO-31 renal = system: UO-31 renal
MALME-3M melanoma = system: MALME-3M melanoma
HCT-116 colon = system: HCT-116 colon
IGROV1 ovarian = system: IGROV1 ovarian
LOX IMVI melanoma = system: LOX IMVI melanoma
NCI-H460 lung = system: NCI-H460 lung
CCRF-CEM leukemia = system: CCRF-CEM leukemia
DU-145 prostate = system: DU-145 prostate
NCI-H226 lung = system: NCI-H226 lung
MOLT-4 leukemia = system: MOLT-4 leukemia
HL-60(TB) leukemia = system: HL-60(TB) leukemia
A498 renal = system: A498 renal
A549 NSCLC = system: A549 NSCLC
SW-620 colon = system: SW-620 colon
UACC-62 melanoma = system: UACC-62 melanoma
EKVX NSCLC = system: EKVX NSCLC
NCI-H23 lung = system: NCI-H23 lung
HT29 colon = system: HT29 colon
K-562 leukemia = system: K-562 leukemia
MDA-N = system: MDA-N
NCI-H522 lung = system: NCI-H522 lung
SNB-19 CNS = system: SNB-19 CNS
MCF7 breast = system: MCF7 breast
KM12 colon = system: KM12 colon
SNB-75 CNS = system: SNB-75 CNS
MDA-MB-231 breast = system: MDA-MB-231 breast
CAKI-1 renal = system: CAKI-1 renal
OVCAR-3 ovarian = system: OVCAR-3 ovarian
M14 melanoma = system: M14 melanoma
SF-295 CNS = system: SF-295 CNS
MDA-MB-435 = system: MDA-MB-435
T-47D breast = system: T-47D breast
NCI/ADR-RES ovarian = system: NCI/ADR-RES ovarian
SR leukemia = system: SR leukemia
OVCAR-5 ovarian = system: OVCAR-5 ovarian
SF-539 CNS = system: SF-539 CNS
UACC-257 melanoma = system: UACC-257 melanoma
HOP-92 NSCLC = system: HOP-92 NSCLC
TK-10 renal = system: TK-10 renal

Measured: TGI

CCN(CC)C(=O)N[C@@H](Cc1ccccc1)C(=O)NC
not listed: SF-539 CNS | UACC-257 melanoma | HOP-92 NSCLC | TK-10 renal
> 100 µM: all other assays above

COc1cc2c(cc1O)-c1c(OC)c(O)cc3c1C(C2)N(C)CC3 (centres undefined)
not listed: HOP-62 NSCLC | HCC-2998 colon | SK-MEL-28 melanoma | MALME-3M melanoma | K-562 leukemia
> 100 µM: all other assays above

— PubChem BioAssay (NCI)
